This is an account of results in ChEMBL document CHEMBL1129808, “A novel photoaffinity label for the dopamine transporter based on N-substituted 3-[bis(4-fluorophenyl)methoxy]tropane” (Bioorg Med Chem Lett, 1997).

In the assay the target is Sodium-dependent dopamine transporter (Rattus norvegicus, UniProt P23977). Put plainly: The compound was tested for binding affinity towards dopamine transporter in rat caudate putamen. The class given is tissue-based.

SMILES strings stand for the structures.

Broadly, the Ki is a measure of affinity in units of concentration, obtained from inhibition or displacement. High values mean a looser hold on the target, low ones a stronger hold on the target.

Sequence of Sodium-dependent dopamine transporter (P23977 whole entry): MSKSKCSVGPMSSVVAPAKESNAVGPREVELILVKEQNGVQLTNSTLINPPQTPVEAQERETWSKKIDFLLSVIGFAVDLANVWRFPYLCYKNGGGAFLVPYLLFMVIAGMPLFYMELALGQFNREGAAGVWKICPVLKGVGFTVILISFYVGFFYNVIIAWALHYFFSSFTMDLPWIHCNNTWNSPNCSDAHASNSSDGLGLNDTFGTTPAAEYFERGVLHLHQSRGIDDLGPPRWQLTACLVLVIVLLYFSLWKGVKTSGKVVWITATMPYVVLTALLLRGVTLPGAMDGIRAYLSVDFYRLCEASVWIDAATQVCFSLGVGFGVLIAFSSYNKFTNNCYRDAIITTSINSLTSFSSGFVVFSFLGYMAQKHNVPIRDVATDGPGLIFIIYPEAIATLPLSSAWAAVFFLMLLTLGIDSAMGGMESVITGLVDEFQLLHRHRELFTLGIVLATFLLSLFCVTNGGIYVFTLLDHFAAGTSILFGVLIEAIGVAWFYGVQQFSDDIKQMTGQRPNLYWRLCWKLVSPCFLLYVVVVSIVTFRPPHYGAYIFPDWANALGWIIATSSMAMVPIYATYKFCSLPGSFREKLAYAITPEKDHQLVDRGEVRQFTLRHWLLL

With `Nc1ccc(CCCCN2[C@@H]3CC[C@H]2C[C@@H](OC(c2ccc(F)cc2)c2ccc(F)cc2)C3)cc1`, the inhibition constant (Ki) is 29.7 nM. In the case of `[N-]=[N+]=Nc1ccc(CCCCN2[C@@H]3CC[C@H]2C[C@@H](OC(c2ccc(F)cc2)c2ccc(F)cc2)C3)cc1I`, affinity was put at a Ki of 159 nM.
